Experiments:
[1] = cited from earlier work; for pK (first value): buffer/salt of Table 1
[2] = Vesicularisation time: sonication of a crude suspension until opalescent/transparent, followed by turbidity; format: physicochemical
Source text: The term aggregate “adaptability” is herein closely related to “deformability” and can be measured using previously described methods (e.g. Wachter et al., 2008, J. Drug Targeting 16: 611). In principle, most of these methods assess the penetration of a nanoporous, semipermeable barrier by the tested aggregates in a suspension, presuming no significant aggregate fragmentation during penetration. In an alternative method, the kinetics of aggregate fragmentation under greater external stress is studied, e.g., during ultrasonication. An aggregate is considered to have an ultradeformable bilayer for purposes of the invention if its adaptability is close to or at about the highest value achievable without an appreciable, and normally spontaneous, aggregate fragmentation into smaller structures, e.g. micelles.
The term “vesicularisation time” refers to the time required to transform an originally opaque suspension (i.e. having an optical density >>3) to an opalescent/transparent suspension with a much lower optical density using external stress, e.g. generated with an ultrasound transducer, high-shear homogeniser (Ultra-Turrax®, IKA) or rotor-stator homogeniser. […]
A first consideration is that the chosen pH is far enough from the tested aggregate surface pKa,mem to exclude ionisation changes during a test; otherwise, experiments must be conducted at two or more constant, yet different, pH values and then analysed together allowing for the pH effects. […]
In a simpler and more qualitative alternative assay, one compares the test sample turbidity with an appropriate opalescent/transparent reference suspension turbidity. A series of readings taken for each representative sample at different times can likewise reveal temporal stability. Experimental data generated with this method confirmed the independency of the conclusions drawn from individual turbidity readouts for the preparations of the invention: within experimental error limits, the difference between the time required to generate more or less, but always similarly turbid suspension is generally the same. […]

[3] = Drug payload limit: terbinafine concentration at minimum vesicularisation time (FIG. 1 inset); format: physicochemical; details: for payload (concentration at minimum vesicularisation time): phosphatidylcholine vesicles + 5 wt.-% ethanol, azeleate buffer 0.05 M
Source text: FIG. 1 is a schematic representation of experiments carried out to show an effect of buffer (ionic additive) selection on the vesicularisation time of reference (i.e. containing >90% pure soybean phosphatidylcholine) vesicles and of vesicles loaded with terbinafine as a function of the bulk pH. The results of an additional test series, in which an increasing amount of terbinafine was incorporated into phosphatidylcholine vesicles (at 10 wt-%-terbinafine concentration+5 wt.-% ethanol) dispersed in azeleate buffer (0.05 M) are shown in the Inset for pH=4.55±0.1 (diamonds) and pH=3.6±0.1 (down-arrow).

[4] = T=310 K, phospholipid plus drug ~10 w-%

SMILES	pK1 ([1]; buffer of Table 4)	pK (first value) [1]	pK2 ([1]; buffer of Table 4)	further results
OCCN1CCCC1 [1-Pyrrolidineethanol (epolamine), 1-Pyrrolidineethanol]	9.8	9.8		
CC(=O)O [Acetic acid]		4.8		
O=C(O)CN(CCO)CCO [Bicine]	8.5		1.9	
OCCN(CCO)C(CO)(CO)CO [Bis-TRIS]	6.5			
C[N+](C)(C)CCO.[Cl-] [Choline, chloride]	13.9			
CCNCC [Diethylamine]	10.6			
O=C(O)[C@H](O)[C@@H](O)[C@H](O)[C@H](O)CO [Gluconic acid]		3.6		
O=S(=O)(O)CCN1CCN(CCO)CC1 [HEPES]	7.6		1.7	
Cl [Hydrochloric acid, sodium, Hydrochloric acid]		−9.3		
c1c[nH]cn1 [Imidazole]	14.5	6.9	6.9	
NCCCC[C@H](N)C(=O)O [Lysine]	10.5		9.1	pK3 ([1]; buffer of Table 4): 2.2
OCCN1CCOCC1 [Morpholinoethanol]	7.4	7.4		
O=S(=O)(O)CCN1CCN(CCS(=O)(=O)O)CC1 [PIPES]	7.1		0.4	
O=C1CC[C@@H](C(=O)O)N1 [Pyroglutamic acid (pidolic acid), Pyroglutamic acid]		3.5		
[Na+].[OH-] [Sodium hydroxyde, NaCl, Sodium hydroxyde]		13.0		
O=S(=O)(O)O [Sulphuric acid]	−3		1.9	
O=C(O)CNC(CO)(CO)CO [Tricine]	8.2		2.3	
O=C(O)CCCCCCCC(=O)O [azaleic acid, Azelaic acid]				log P [1]: > 1
O=C(c1ccccc1)c1ccc2n1CCC2C(=O)O (stereo not drawn) [ketorolac, reference compound]				log Pmem^I ([1]; best estimates): ~0.8; log Pmem^N ([1]; best estimates): ~2.3; pK ([1]; best estimates): 3.5; pKa,mem ([1]; best estimates): ~5.5
Cc1ccc(S(=O)(=O)O)cc1 [p-Toluenesulfonic acid]		0.7		
CN(C/C=C/C#CC(C)(C)C)Cc1cccc2ccccc12 [terbinafine]				de/protonation constant in a membrane, pKa,mem [1, 4]: 5.5; de/protonation constant in the bulk, pK [1, 4]: 7.05; water-membrane partition ratio, ionised drug form, log Pmem^I [1, 4]: 3.78; water-membrane partition ratio, neutral drug form, log Pmem^N [1, 4]: 5.19; vesicularisation time ([2]; 10 wt.-% total amphipat including 20 rel-% terbinafine, phosphate buffer, pH~4.4): exceeds 200 s; sonication time (vesicularisation time) ([2]; terbinafine + phosphatidylcholine, 0.1 M phosphate buffer, pH=5.7, fails to produce small aggregates above the precipitate): exceeding 1400 s; time needed to prepare drug-loaded aggregates ([2]; terbinafine + phosphatidylcholine, phosphate buffer, pH=5.2): around 700 s; payload limit (concentration at minimum vesicularisation time) ([3]; aggregate suspensions in phosphate buffer of comparable pH): < 10 wt.-%; higher payload in azeleate buffer compared with phosphate buffer ([3]; comparable pH): at least 50%; payload (concentration at minimum vesicularisation time) ([3]; pH=3.6): ~20%; payload (concentration at minimum vesicularisation time) ([3]; pH=4.55): ~15%
